Results published in patent US12529029B2, “Cell culture medium comprising small peptides” (LIFE TECHNOLOGIES CORPORATION, priority 2010, dated 2026).
Values after ≈ are worked out from the molar mass of the structure shown. Where a SMILES comes first, the peptide text is derived from it. Bridges are numbered along the chain shown (N, C = ends). Roman numbers before positions name the chains, in order.

Key:
[1] = 25° C., by way of comparison; cited from earlier work
physchem = type: physicochemical
Description: An exemplary cell culture medium containing the dipeptides alanyl tyrosine (AlaTyr) and alanyl cysteine (which forms a disulfide dimer, [AlaCys]2) was prepared. Specifically, the dipeptides, alanyl tyrosine and alanyl cysteine were added as dry powder to an aqueous basal cell culture medium containing glucose and a mixture of concentrated amino acids and mixed until dissolved. […].

Row | solubility (physchem) | SMILES | solubility in water [1]
1 | – | N[C@@H](CSSC[C@H](N)C(=O)O)C(=O)O [L-Cystine] | about 0.11 g/L
2 | ~8.7 mg/mL (≈ 22.7 mM) | C[C@H](N)C(=O)N[C@@H](CSSC[C@H](NC(=O)[C@H](C)N)C(=O)O)C(=O)O [[AlaCys]2 dimer, N,N′-di-L-Alanyl-L-Cystine] (I: H-Ala-Cys-OH / II: H-Ala-Cys-OH; disulfide I:2-II:2) | –
3 | ~15.4 mg/mL (≈ 61 mM) | C[C@H](N)C(=O)N[C@@H](Cc1ccc(O)cc1)C(=O)O [AlaTyr, alanyl tyrosine] (H-Ala-Tyr-OH) | –
